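Values below derive from 48-hour exposures of cells grown in 96-well plates, with endpoints linearly interpolated between the two concentrations bracketing the appropriate inhibition level. GI50 marks 50% less growth. TGI marks complete inhibition of growth.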
Experiments:
Assay in all cases: DTP human tumour cell line panel, 48 h
DLD-1 colon = tested on: DLD-1 colon
DMS 114 small cell lung = tested on: DMS 114 small cell lung
LXFL 529 NSCLC = tested on: LXFL 529 NSCLC
M19-MEL melanoma = tested on: M19-MEL melanoma
HOP-18 NSCLC = tested on: HOP-18 NSCLC
RXF-631 renal = tested on: RXF-631 renal
SNB-78 CNS = tested on: SNB-78 CNS
XF 498 CNS = tested on: XF 498 CNS

| Compound | TGI (DLD-1 colon) [µM] | TGI (DMS 114 small cell lung) [µM] | TGI (LXFL 529 NSCLC) [µM] | TGI (M19-MEL melanoma) [µM] | TGI (HOP-18 NSCLC) [µM] | TGI (RXF-631 renal) [µM] | TGI (SNB-78 CNS) [µM] | TGI (XF 498 CNS) [µM] | GI50 (DLD-1 colon) [µM] | GI50 (DMS 114 small cell lung) [µM] | GI50 (HOP-18 NSCLC) [µM] | GI50 (LXFL 529 NSCLC) [µM] | GI50 (M19-MEL melanoma) [µM] | GI50 (XF 498 CNS) [µM] |
| --- | --- | --- | --- | --- | --- | --- | --- | --- | --- | --- | --- | --- | --- | --- |
| Nc1c(-c2ccccc2[N+](=O)[O-])nc2ccccn12 | > 100 | > 100 | > 100 | > 100 | – | – | – | – | – | – | – | – | – | – |
| CCCCOCc1cc(CN2CCN(C)CC2)c(O)c2ncccc12 | > 100 | 23.9 | > 100 | > 100 | 39.9 | > 100 | > 100 | > 100 | – | – | – | – | – | – |
| c1cncc(O[Si](Oc2cccnc2)(Oc2cccnc2)Oc2cccnc2)c1 | > 100 | > 100 | – | > 100 | > 100 | > 100 | > 100 | > 100 | – | – | – | – | – | – |
| C[CH2][Ge]([CH2]C)([CH2]C)[O]C(=O)CCC(=O)[O][Ge]([CH2]C)([CH2]C)[CH2]C | > 100 | > 100 | > 100 | > 100 | > 100 | – | – | > 100 | 38.7 | 38.9 | > 100 | 42.5 | > 100 | > 100 |
| Cc1ccc(C(O)(c2ccc(C)cc2)c2ccccn2)cc1 | > 100 | > 100 | – | > 100 | > 100 | > 100 | > 100 | – | – | – | – | – | – | – |
